Common to all, as to format: functional
Assay [1] concerns Staphylococcus aureus. As to the kind of experiment: In vitro antibacterial activity against methicillin-resistant S. a. 019 (Staphylococcus aureus ATCC 33591 ).
In assay [2] the test system is Enterococcus faecalis. Kind of assay: In vitro antibacterial activity against vancomycin-susceptible E. f. 034 (Enterococcus faecalis ATCC 29212).
In assay [3] the test system is Enterococcus faecium. Kind of assay: In vitro antibacterial activity against vancomycin-resistant Enterococcus faecium 154 (Enterococcus faecium ATCC 12202).
Assay [4] concerns Staphylococcus aureus. As to the kind of experiment: In vitro antibacterial activity against S. a. 035 (Staphylococcus aureus ATCC 29213).
Assay [5] relates to Enterococcus faecalis. Kind of assay: In vitro antibacterial activity against vancomycin-susceptible E. f. 153 (Enterococcus faecalis ATCC 29212).
Assay [6] deals with Staphylococcus aureus. Kind of assay: In vitro antibacterial activity against S. a. 213 (Staphylococcus. aureus ATCC 49951).
Assay [7] has as its system Staphylococcus aureus. Kind of assay: In vitro antibacterial activityd against methicillin-resistant S. a. 019 (Staphylococcus aureus ATCC 33591 ).
Assay [8] has as its system Enterococcus faecium. Kind of assay: In vitro antibacterial activityd against vancomycin-resistant Enterococcus faecium 154 (Enterococcus faecium ATCC 12202).
For assay [9], the system named is Staphylococcus aureus. As to the kind of experiment: In vitro minimum inhibitory concentration of compound against S. a. 035 (Staphylococcus aureus ATCC 29213).

We go through 15 compounds from ChEMBL document CHEMBL1136452, “Influence of ethylene-oxy spacer group on the activity of linezolid: synthesis of potent antibacterials possessing a thiocarbonyl group” (2003).

The structures appear in SMILES notation. In brackets after ≈: the same amount, converted by molar mass.

The MIC is the lowest concentration found to suppress growth. Regarding `C/C(S)=N/NC[C@H]1CN(c2ccc(OCCN3CCCCC3)c(F)c2)C(=O)O1`, the MIC in the assay on Staphylococcus aureus [1] was determined as 2 µg/mL (≈ 4.87 µM); in the assay on Enterococcus faecalis [2], 8 µg/mL (≈ 19.5 µM); against Enterococcus faecium [3], 4 µg/mL (≈ 9.74 µM); in the assay with Staphylococcus aureus [4], 8 µg/mL (≈ 19.5 µM); in the assay with Enterococcus faecalis [5] it was 4 µg/mL (≈ 9.74 µM); in the assay with Staphylococcus aureus [6], 8 µg/mL (≈ 19.5 µM).
In the case of `CO/C(S)=N/NC[C@H]1CN(c2ccc(OCCN3CCSCC3)c(F)c2)C(=O)O1`, the MIC stood at 1 µg/mL (≈ 2.25 µM) in the assay on Staphylococcus aureus [7]; 1 µg/mL (≈ 2.25 µM) in the assay on Enterococcus faecalis [2]; 2 µg/mL (≈ 4.5 µM) in the assay on Enterococcus faecium [3]; 4 µg/mL (≈ 9 µM) against Staphylococcus aureus [4]; 2 µg/mL (≈ 4.5 µM) against Enterococcus faecalis [5]; 4 µg/mL (≈ 9 µM) in the assay on Staphylococcus aureus [6].
Turning to `CC(=O)NNC[C@H]1CN(c2ccc(OCCO)c(F)c2)C(=O)O1`, the MIC with Enterococcus faecium [8] was found to be 16 µg/mL (≈ 48.9 µM); against Staphylococcus aureus [7], 8 µg/mL (≈ 24.4 µM); against Enterococcus faecalis [2], 16 µg/mL (≈ 48.9 µM); with Staphylococcus aureus [4], 8 µg/mL (≈ 24.4 µM); in the assay on Enterococcus faecalis [5], 16 µg/mL (≈ 48.9 µM).
For `CC(=O)NNC[C@H]1CN(c2ccc(OCCN3CCCC3)cc2)C(=O)O1`, the MIC with Staphylococcus aureus [1] is 32 µg/mL (≈ 88.3 µM); in the assay with Enterococcus faecalis [2], above 32 µg/mL; in the assay on Enterococcus faecium [3] it was above 32 µg/mL; in the assay with Staphylococcus aureus [4], above 32 µg/mL; in the assay with Enterococcus faecalis [5], above 32 µg/mL.
In the case of `C/C(S)=N/NC[C@H]1CN(c2ccc(OCCN3CCSCC3)c(F)c2)C(=O)O1`, the MIC amounted to 0.5 µg/mL (≈ 1.17 µM) in the assay on Staphylococcus aureus [1]; 1 µg/mL (≈ 2.33 µM) with Enterococcus faecalis [2]; 2 µg/mL (≈ 4.67 µM) in the assay with Enterococcus faecium [3]; 2 µg/mL (≈ 4.67 µM) against Staphylococcus aureus [4]; 2 µg/mL (≈ 4.67 µM) with Enterococcus faecalis [5]; 2 µg/mL (≈ 4.67 µM) against Staphylococcus aureus [6].
Regarding `CC(=O)NNC[C@H]1CN(c2ccc(OCCN3CCSCC3)c(F)c2)C(=O)O1`, the MIC was 4 µg/mL (≈ 9.7 µM) against Staphylococcus aureus [1]; 16 µg/mL (≈ 38.8 µM) in the assay with Enterococcus faecalis [2]; 4 µg/mL (≈ 9.7 µM) in the assay with Enterococcus faecium [3]; 16 µg/mL (≈ 38.8 µM) against Staphylococcus aureus [4]; 16 µg/mL (≈ 38.8 µM) in the assay on Enterococcus faecalis [5]; 16 µg/mL (≈ 38.8 µM) with Staphylococcus aureus [6].
With `CC(=O)NNC[C@H]1CN(c2ccc(OCCOCc3ccccc3)c(F)c2)C(=O)O1`, the MIC with Enterococcus faecium [8] amounted to 32 µg/mL (≈ 76.7 µM); against Staphylococcus aureus [1], 8 µg/mL (≈ 19.2 µM); in the assay on Enterococcus faecalis [2], 32 µg/mL (≈ 76.7 µM); in the assay on Staphylococcus aureus [4], 16 µg/mL (≈ 38.3 µM); with Enterococcus faecalis [5], 32 µg/mL (≈ 76.7 µM).
`C/C(S)=N/NC[C@H]1CN(c2ccc(OCCN3CCOCC3)c(F)c2)C(=O)O1`: the MIC was 1 µg/mL (≈ 2.42 µM) against Staphylococcus aureus [1]; 2 µg/mL (≈ 4.85 µM) with Staphylococcus aureus [9]; 2 µg/mL (≈ 4.85 µM) against Enterococcus faecalis [2]; 2 µg/mL (≈ 4.85 µM) with Enterococcus faecium [3]; 2 µg/mL (≈ 4.85 µM) in the assay with Enterococcus faecalis [5]; 2 µg/mL (≈ 4.85 µM) in the assay with Staphylococcus aureus [6].
Take `CO/C(S)=N/NC[C@H]1CN(c2ccc(OCCN3CCOCC3)c(F)c2)C(=O)O1`: the MIC in the assay with Staphylococcus aureus [1] was 2 µg/mL (≈ 4.67 µM); in the assay on Enterococcus faecalis [2], 2 µg/mL (≈ 4.67 µM); in the assay with Enterococcus faecium [3] it was 2 µg/mL (≈ 4.67 µM); with Staphylococcus aureus [4], 4 µg/mL (≈ 9.34 µM); in the assay with Enterococcus faecalis [5], 4 µg/mL (≈ 9.34 µM); in the assay on Staphylococcus aureus [6], 4 µg/mL (≈ 9.34 µM).
On to `CC(=O)NNC[C@H]1CN(c2ccc(OCCN3CCOCC3)cc2)C(=O)O1`, for which the MIC against Staphylococcus aureus [1], in the assay with Enterococcus faecalis [2], in the assay on Enterococcus faecium [3], in the assay on Staphylococcus aureus [4] and against Enterococcus faecalis [5] was above 32 µg/mL throughout.
Consider `CC(=O)NNC[C@H]1CN(c2ccc(OCCN3CCCCC3)cc2)C(=O)O1`, for which the MIC in the assay with Staphylococcus aureus [1], against Enterococcus faecalis [2], in the assay with Enterococcus faecium [3], with Staphylococcus aureus [4] and in the assay on Enterococcus faecalis [5] was above 32 µg/mL in each case.
In the case of `CC(=O)NNC[C@H]1CN(c2ccc(OCCN3CCCCC3)c(F)c2)C(=O)O1`, the MIC with Staphylococcus aureus [1] is 32 µg/mL (≈ 81.1 µM); in the assay with Enterococcus faecalis [2], 64 µg/mL (≈ 162 µM); with Enterococcus faecium [3] it was 64 µg/mL (≈ 162 µM); against Staphylococcus aureus [4], 64 µg/mL (≈ 162 µM); in the assay on Enterococcus faecalis [5] it was 64 µg/mL (≈ 162 µM); against Staphylococcus aureus [6] it was 64 µg/mL (≈ 162 µM).
On to `CC(=O)NNC[C@H]1CN(c2ccc(OCCN3CCOCC3)c(F)c2)C(=O)O1`, for which the MIC in the assay on Staphylococcus aureus [1] amounted to 4 µg/mL (≈ 10.1 µM); in the assay with Enterococcus faecalis [2], 16 µg/mL (≈ 40.4 µM); against Enterococcus faecium [3], 4 µg/mL (≈ 10.1 µM); in the assay on Staphylococcus aureus [4] it was 16 µg/mL (≈ 40.4 µM); in the assay on Enterococcus faecalis [5] it was 16 µg/mL (≈ 40.4 µM); with Staphylococcus aureus [6] it was 16 µg/mL (≈ 40.4 µM).
Take `CC(=O)NC[C@H]1CN(c2ccc(N3CCOCC3)c(F)c2)C(=O)O1` [LINEZOLID]: the MIC against Staphylococcus aureus [1] came out at 1 µg/mL (≈ 2.96 µM); in the assay on Enterococcus faecium [3] it was 2 µg/mL (≈ 5.93 µM).
`CN[C@H](CC(C)C)C(=O)N[C@H]1C(=O)N[C@@H](CC(N)=O)C(=O)N[C@H]2C(=O)N[C@H]3C(=O)N[C@H](C(=O)N[C@H](C(=O)O)c4cc(O)cc(O)c4-c4cc3ccc4O)[C@H](O)c3ccc(c(Cl)c3)Oc3cc2cc(c3O[C@@H]2O[C@H](CO)[C@@H](O)[C@H](O)[C@H]2O[C@H]2C[C@](C)(N)[C@H](O)[C@H](C)O2)Oc2ccc(cc2Cl)[C@H]1O` [VANCOMYCIN]: the MIC in the assay on Enterococcus faecalis [2] is 2 µg/mL (≈ 1.38 µM); in the assay on Enterococcus faecium [3], above 32 µg/mL; in the assay on Enterococcus faecalis [5], above 32 µg/mL.
